# Measured values as given in patent US10081632B2, “Substituted tetrahydropyrido[3′,2′:4,5]pyrrolo[1,2-α]pyrazine-2-carboxamides as RSK inhibitors” (Phoenix Molecular Designs, priority 2016, dated 2018).
# “Also recorded” adds a separate entry of the source.
# Columns and labels:
# [1] = Solubility assessment, 20 mg/ml solution; type: physicochemical; conditions: for Solubility, 20 mg/ml Solution: 100 mM in DMSO diluted in DMEM growth media to 20 mg/ml
# Procedure: Solubility is an important property for therapeutic drug candidates. Poor solubility can lead to low bioavailability resulting in suboptimal drug delivery. It can also prevent the evaluation of test agents in animals because the concentration(s) needed to achieve the desired effect cannot be achieved to poor solubility. For solubility assessments, small molecules targeting RSK were compared. For these assessments, 100 mM solutions of the compounds dissolved in DMSO were diluted in DMEM growth media (Life Technologies) supplemented with fetal bovine serum (FBS, Life Technologies) and 100 units/ml penicillin and 100 units/ml streptomycin (Life Technologies) to make 20 mg/ml solutions. Once diluted, the solutions were vortexed and examined for the formation of precipitates. […] For Compound 26, a 100 mM solution of the compound dissolved in DMSO was diluted in phosphate buffered saline (Life Technologies) to make a 20 mg/ml solution. The stock of […] was chosen because this is the upper end of what would be required to dose mice for a range of studies including MTD, PK, PD and efficacy. The pH of this solution was determined to be 2, as previously described. […] At high concentrations some RSK inhibitors were highly soluble while others were not. Compound 0 is (R)—N-(1-benzyl-1H-pyrazol-4-yl)-9-methyl-6-oxo-6,7,8,9-tetrahydropyrido[3′,2′:4,5]pyrrolo[1,2-a]pyrazine-2-carboxamide. Compound 0 was not soluble, whereas Compounds 18, 20, 21, 25 and 26 were soluble under the same conditions (Table 5).
# [2] = system: MDA-MB-231 cells; assay: Soft agar growth inhibition assay; type: cell-based; conditions: Homo sapiens, MDA-MB-231; growth in soft agar (SA); read-out: MDA-MB-231 IC50 (SA)
# [3] = system: CD34+ cells; assay: Colony forming unit hematopoietic stem cell assay; type: cell-based, human
# Procedure: The hematopoietic colony forming cell assay was conducted based on a protocol outlined by StemCell Technologies. […] Following the addition of CD34^+ cells isolated from human cord blood or peripheral blood (StemCell Technologies) at a final concentration of 5×10^2 cells per dish, the tubes were vortexed and allowed to stand for 5 minutes at room temperature. Next, the MethoCult mixtures were dispensed into 35 mm dishes (Corning Incorporated) through blunt end needles (StemCell Technologies) and 5 ml syringes (BD Biosciences) at a volume of 1.1 ml per dish. The medium was evenly distributed across the surface of each dish by gentle tilting and rotation. The dishes were then placed in a 100 mm culture dish (Grenier Bio-One) containing additional 35 mm dishes with sterile water to maintain humidity. […] The number of myeloid and erythroid derived colonies in both the treated and control dishes were counted and compared.
# [4] = molecular target: RSK2 (Homo sapiens (Human), UniProt P51812); assay: Radioisotope kinase assay (SignalChem), RSK2; type: biochemical; conditions: 33P-ATP, 30° C., 15 minutes
# Procedure: The assay conditions for the RSK2 kinase target were optimized to yield acceptable enzymatic activity. In addition, the assays were optimized to give high signal-to-noise ratio.
# Radioisotope assays (SignalChem) were performed for the evaluation of the kinase target profiling and all assays were performed in a designated radioactive working area. The kinase targets were RSK1, RSK2, RSK3, RSK4 and MK2.
# The assay was initiated by the addition of ^33P-ATP and the reaction mixture incubated at 30° C. for 15 minutes. After the incubation period, the assay was terminated by spotting 10 μL of the reaction mixture onto Multiscreen phosphocellulose P81 plate. The Multiscreen phosphocellulose P81 plate was washed 3 times for approximately 15 minutes each in a 1% phosphoric acid solution. The radioactivity on the P81 plate was counted in the presence of scintillation fluid in a Trilux scintillation counter.
# Blank controls were set up for each target kinase which included all the assay components except the addition of the appropriate substrate (which was replaced with equal volume of assay dilution buffer). The corrected activity for each target kinase was determined by removing the blank control value.
# [5] = system: 4T1 cells; assay: Monolayer growth inhibition, Alamar blue assay; type: cell-based; conditions: Mus musculus; 4T1 (TNBC), 5 days, single dose on day 1
# Description: (§1) In all instances a single dose was given on day 1 of the experiment.
# [6] = system: HCC1143 cells; assay: Monolayer growth inhibition, Alamar blue assay; type: cell-based; conditions: Homo sapiens; HCC1143 (TNBC), 5 days, single dose on day 1
# Description: as §1
# [7] = system: HCC1937 cells; assay: Monolayer growth inhibition, Alamar blue assay; type: cell-based; conditions: Homo sapiens; HCC1937 (TNBC, BRCA Mutant), 5 days, single dose on day 1
# Description: as §1
# [8] = system: JIMT-1 cells; assay: Monolayer growth inhibition, Alamar blue assay; type: cell-based; conditions: Homo sapiens; JIMT-1 (HER2), 5 days, single dose on day 1
# Description: as §1
# [9] = system: MDA-MB-231 cells; assay: Monolayer growth inhibition, Alamar blue assay; type: cell-based; conditions: Homo sapiens; MDA-MB-231 (TNBC), 5 days, single dose on day 1
# Description: as §1
# [10] = system: MDA-MB-435 cells; assay: Monolayer growth inhibition, Alamar blue assay; type: cell-based; conditions: Homo sapiens; MDA-MB-435 (Melanoma), 5 days, single dose on day 1
# Description: as §1
# [11] = system: MDA-MB-468 cells; assay: Monolayer growth inhibition, Alamar blue assay; type: cell-based; conditions: Homo sapiens; MDA-MB-468 (TNBC), 5 days, single dose on day 1
# Description: as §1
# [12] = system: PC3 cells; assay: Monolayer growth inhibition, Alamar blue assay; type: cell-based; conditions: Homo sapiens, PC-3; PC3 (Prostate), 5 days, single dose on day 1
# Description: as §1
# [13] = system: SUM149 cells; assay: Monolayer growth inhibition, Alamar blue assay; type: cell-based; conditions: Homo sapiens; SUM149 (TNBC, BRCA Mutant), 5 days, single dose on day 1
# Description: as §1
# [14] = system: SUM149-PTXR cells; assay: Monolayer growth inhibition, Alamar blue assay; type: cell-based, Human; conditions: Homo sapiens; SUM149-PTXR (TNBC, BRCA Mutant), 5 days, single dose on day 1
# Description: as §1
# [15] = system: T47D cells; assay: Monolayer growth inhibition, Alamar blue assay; type: cell-based, Human; conditions: Homo sapiens; T47D (ER/PR), 5 days, single dose on day 1
# Description: as §1
# [16] = system: HCC1937 cells; assay: Monolayer growth inhibition, crystal violet assay; type: cell-based; conditions: Homo sapiens; HCC1937 (TNBC, BRCA Mutant), 5 days, single dose on day 1
# Description: (§2) In all instances a single dose was given on day 1 of the experiment. […] Complete (100%) growth suppression was achievable with several of the compounds in multiple different cell lines.
# [17] = system: JIMT-1 cells; assay: Monolayer growth inhibition, crystal violet assay; type: cell-based; conditions: Homo sapiens; JIMT-1 (HER2), 5 days, single dose on day 1
# Description: as §2
# [18] = system: MDA-MB-468 cells; assay: Monolayer growth inhibition, crystal violet assay; type: cell-based; conditions: Homo sapiens; MDA-MB-468 (TNBC), 5 days, single dose on day 1
# Description: as §2
# [19] = system: T47D cells; assay: Monolayer growth inhibition, crystal violet assay; type: cell-based; conditions: Homo sapiens; T47D (ER/PR), 5 days, single dose on day 1
# Description: as §2
# [20] = system: 4T1 cells; assay: Monolayer growth inhibition, crystal violet assay; type: cell-based; conditions: Mus musculus; 4T1 (TNBC), 5 days, single dose on day 1
# Description: as §1
# [21] = system: HCC1143 cells; assay: Monolayer growth inhibition, crystal violet assay; type: cell-based; conditions: Homo sapiens; HCC1143 (TNBC), 5 days, single dose on day 1
# Description: as §1
# [22] = system: MDA-MB-231 cells; assay: Monolayer growth inhibition, crystal violet assay; type: cell-based; conditions: Homo sapiens; MDA-MB-231 (TNBC), 5 days, single dose on day 1
# Description: as §1
# [23] = system: MDA-MB-435 cells; assay: Monolayer growth inhibition, crystal violet assay; type: cell-based; conditions: Homo sapiens; MDA-MB-435 (Melanoma), 5 days, single dose on day 1
# Description: as §1
# [24] = system: PC3 cells; assay: Monolayer growth inhibition, crystal violet assay; type: cell-based; conditions: Homo sapiens, PC-3; PC3 (Prostate), 5 days, single dose on day 1
# Description: as §1
# [25] = system: SUM149 cells; assay: Monolayer growth inhibition, crystal violet assay; type: cell-based; conditions: Homo sapiens; SUM149 (TNBC, BRCA Mutant), 5 days, single dose on day 1
# Description: as §1
# [26] = system: SUM149-PTXR cells; assay: Monolayer growth inhibition, crystal violet assay; type: cell-based; conditions: Homo sapiens; SUM149-PTXR (TNBC, BRCA Mutant), 5 days, single dose on day 1
# Description: as §1
# Sequence of RSK2 (P51812 whole entry): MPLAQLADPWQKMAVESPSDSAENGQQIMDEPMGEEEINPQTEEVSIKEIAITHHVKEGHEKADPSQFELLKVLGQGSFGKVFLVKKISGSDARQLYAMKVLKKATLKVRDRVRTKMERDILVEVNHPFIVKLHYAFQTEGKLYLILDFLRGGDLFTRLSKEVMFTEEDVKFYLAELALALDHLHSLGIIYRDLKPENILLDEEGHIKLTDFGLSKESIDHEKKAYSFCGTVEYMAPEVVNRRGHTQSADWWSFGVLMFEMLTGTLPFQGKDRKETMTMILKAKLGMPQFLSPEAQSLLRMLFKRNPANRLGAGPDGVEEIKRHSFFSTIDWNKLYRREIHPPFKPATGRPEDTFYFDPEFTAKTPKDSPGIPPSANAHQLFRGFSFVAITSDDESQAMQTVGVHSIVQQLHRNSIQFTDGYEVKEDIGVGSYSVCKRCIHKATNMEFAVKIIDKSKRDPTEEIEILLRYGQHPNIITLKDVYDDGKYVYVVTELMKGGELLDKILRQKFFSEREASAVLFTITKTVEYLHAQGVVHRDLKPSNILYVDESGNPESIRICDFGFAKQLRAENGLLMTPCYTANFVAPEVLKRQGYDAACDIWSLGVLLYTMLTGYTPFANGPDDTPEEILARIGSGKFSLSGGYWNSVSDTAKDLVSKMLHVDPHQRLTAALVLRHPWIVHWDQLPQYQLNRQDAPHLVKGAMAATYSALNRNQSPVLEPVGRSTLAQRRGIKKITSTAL
structure (smiles),measurement,setting,value
"C[C@@H]1CNC(=O)c2cc3ccc(C(=O)Nc4cnn(Cc5ccccc5)c4)nc3n21 [Compound 0, (R)—N-(1-benzyl-1H-pyrazol-4-yl)-9-methyl-6-oxo-6,7,8,9-tetrahydropyrido[3′,2′:4,5]pyrrolo[1,2-a]pyrazine-2-carboxamide, reference compound]","Solubility, 20 mg/ml Solution",[1],not soluble; also recorded: poor or nonexistent solubility; also recorded: Precipitate
same,IC50,[2],0.2 µM
same,IC50,"[3]; Homo sapiens, Hematopoietic stem cell, CD34+ cells from peripheral blood, read-out: CD34+ (PB) IC50",10 µM
same,Therapeutic Window,[3]; ratio IC50 against CD34+ cells and MDA-MB-231 cells (SA),50X
"O=C(Nc1ccc2[nH]cc(CN3CCOCC3)c2c1)c1cnn(Cc2ccccc2)c1 [Compound 1, 1-Benzyl-N-(3-(morpholinomethyl)-1H-indol-5-yl)-1H-pyrazole-4-carboxamide]",IC50,[4],> 10 µM
"O=C(Nc1ccc2c(CN3CCOCC3)c[nH]c2c1)c1cnn(Cc2ccccc2)c1 [Compound 2, 1-Benzyl-N-(3-(morpholinomethyl)-1H-indol-6-yl)-1H-pyrazole-4-carboxamide]",IC50,[4],> 10 µM
"CN1CCN(Cc2c[nH]c3ccc(NC(=O)c4cnn(Cc5ccccc5)c4)cc23)CC1 [Compound 3, 1-Benzyl-N-(3-((4-methylpiperazin-1-yl)methyl)-1H-indol-5-yl)-1H-pyrazole-4-carboxamide]",IC50,[4],> 10 µM
"CN1CCN(Cc2c[nH]c3cc(NC(=O)c4cnn(Cc5ccccc5)c4)ccc23)CC1 [Compound 4, 1-Benzyl-N-(3-((4-methylpiperazin-1-yl)methyl)-1H-indol-6-yl)-1H-pyrazole-4-carboxamide]",IC50,[4],> 10 µM
"O=C(Nc1ccc2scc(CN3CCOCC3)c2c1)c1cnn(Cc2ccccc2)c1 [Compound 5, 1-Benzyl-N-(3-(morpholinomethyl)benzo[b]thiophen-5-yl)-1H-pyrazole-4-carboxamide]",IC50,[4],> 10 µM
"O=C(Nc1ccc2scc(CN3CCNCC3)c2c1)c1cnn(Cc2ccccc2)c1 [Compound 6, 1-Benzyl-N-(3-(piperazin-1-ylmethyl)benzo[b]thiophen-5-yl)-1H-pyrazole-4-carboxamide]",IC50,[4],> 10 µM
"O=C(Nc1ccc2c(CN3CCOCC3)coc2c1)c1cnn(Cc2ccccc2)c1 [Compound 7, 1-benzyl-N-(3-(morpholinomethyl)benzofuran-6-yl)-1H-pyrazole-4-carboxamide]",IC50,[4],> 10 µM
"O=C(Nc1ccc2occ(CN3CCOCC3)c2c1)c1cnn(Cc2ccccc2)c1 [Compound 8, 1-benzyl-N-(3-(morpholinomethyl)benzofuran-5-yl)-1H-pyrazole-4-carboxamide]",IC50,[4],> 10 µM
"O=C(Nc1ccc2occ(CN3CCNCC3)c2c1)c1cnn(Cc2ccccc2)c1 [Compound 9, 1-benzyl-N-(3-(piperazin-1-ylmethyl)benzofuran-5-yl)-1H-pyrazole-4-carboxamide]",IC50,[4],> 10 µM
"O=C(Nc1ccc2c(CN3CCNCC3)coc2c1)c1cnn(Cc2ccccc2)c1 [Compound 10, 1-benzyl-N-(3-(piperazin-1-ylmethyl)benzofuran-6-yl)-1H-pyrazole-4-carboxamide]",IC50,[4],> 1 µM
"C[C@@H]1CNC(=O)c2cc3ccc(NC(=O)c4cnn(Cc5ccccc5)c4)cc3n21 [Compound 11, (R)-1-benzyl-N-(4-methyl-1-oxo-1,2,3,4-tetrahydropyrazino[1,2-a]indol-7-yl)-1H-pyrazole-4-carboxamide]",IC50,[5],48.5 ± 2.6 µM
same,IC50,[6],> 50 µM
same,IC50,[7],> 50 µM
same,IC50,[8],> 50 µM
same,IC50,[9],> 50 µM
same,IC50,[10],24.6 ± 10.3 µM
same,IC50,[11],> 50 µM
same,IC50,[12],44.9 ± 8.8 µM
same,IC50,[13],36 ± 12.8 µM
same,IC50,[14],36.4 ± 11.9 µM
same,IC50,[15],48.1 ± 3.3 µM
same,IC50,[16],> 50 µM
same,IC50,[17],> 50 µM
same,IC50,[18],37.3 ± 2.3 µM
same,IC50,[19],30.1 ± 3.3 µM
same,IC50,[20],39.5 ± 9.4 µM
same,IC50,[21],> 50 µM
same,IC50,[22],45 ± 8.7 µM
same,IC50,[23],17.9 ± 7.3 µM
same,IC50,[24],45.6 ± 4.8 µM
same,IC50,[25],33.6 ± 14.5 µM
same,IC50,[26],44.6 ± 3.9 µM
"O=C(Nc1ccc2cc3n(c2c1)CCNC3=O)c1cnn(Cc2ccccc2)c1 [Compound 12, 1-benzyl-N-(1-oxo-1,2,3,4-tetrahydropyrazino[1,2-a]indol-7-yl)-1H-pyrazole-4-carboxamide]",IC50,[4],> 1 µM
"CN1CCc2oc3ccc(NC(=O)c4cnn(Cc5ccccc5)c4)cc3c2C1 [Compound 13, 1-benzyl-N-(2-methyl-1,2,3,4-tetrahydrobenzofuro[3,2-c]pyridin-8-yl)-1H-pyrazole-4-carboxamide]",IC50,[4],> 1 µM
"CN1CCc2[nH]c3ccc(NC(=O)c4cnn(Cc5ccccc5)c4)cc3c2C1 [Compound 14, 1-benzyl-N-(2-methyl-2,3,4,5-tetrahydro-1H-pyrido[4,3-b]indol-8-yl)-1H-pyrazole-4-carboxamide]",IC50,[4],> 1 µM
"C[C@@H]1CNC(=O)c2cc3ccc(C(=O)Nc4cnn(CC5CCN(C)CC5)c4)nc3n21 [Compound 20, (R)-9-methyl-N-(1-((1-methylpiperidin-4-yl)methyl)-1H-pyrazol-4-yl)-6-oxo-6,7,8,9-tetrahydropyrido[3′,2′:4,5]pyrrolo[1,2-a]pyrazine-2-carboxamide]","Solubility, 20 mg/ml Solution",[1],Soluble
same,pH of 20 mg/ml solution,"[1]; DMSO stock diluted in DMEM, pH test strips",8
